PMC4620497 (Scientific Reports, 2015)

Experiments:
[1] = biological target: T1, ABL1(F317I)-phosphorylated (Homo sapiens, UniProt P00519, F317I); assay: KINOMEscan panel screen; format: binding; details: read-out: Percent Control(%)
T1 construct: purchased DiscoveRx KINOMEscan (Ambit Biosciences)

[2] = biological target: T2, ABL1(M351T)-phosphorylated (Homo sapiens, UniProt P00519, M351T); assay: KINOMEscan panel screen; format: binding; details: read-out: Percent Control(%)
T2 construct: purchased DiscoveRx KINOMEscan (Ambit Biosciences)

[3] = biological target: T3, ADCK4 (Homo sapiens, UniProt Q96D53); assay: KINOMEscan panel screen; format: binding; details: read-out: Percent Control(%)
T3 construct: purchased DiscoveRx KINOMEscan (Ambit Biosciences)

[4] = biological target: T4, CAMK1 (Homo sapiens, UniProt Q14012); assay: KINOMEscan panel screen; format: binding; details: read-out: Percent Control(%)
T4 construct: purchased DiscoveRx KINOMEscan (Ambit Biosciences)

[5] = biological target: T5, CDK7 (Homo sapiens, UniProt P50613); assay: KINOMEscan panel screen; format: binding; details: read-out: Percent Control(%)
T5 construct: purchased DiscoveRx KINOMEscan (Ambit Biosciences)

[6] = biological target: T6, CIT (Homo sapiens, UniProt O14578); assay: KINOMEscan panel screen; format: binding; details: read-out: Percent Control(%)
T6 construct: purchased DiscoveRx KINOMEscan (Ambit Biosciences)

[7] = biological target: T7, CSF1R-autoinhibited (Homo sapiens, UniProt P07333); assay: KINOMEscan panel screen; format: binding; details: read-out: Percent Control(%)
T7 construct: purchased DiscoveRx KINOMEscan (Ambit Biosciences)

[8] = biological target: T8, CSK (Homo sapiens, UniProt P41240); assay: KINOMEscan panel screen; format: binding; details: read-out: Percent Control(%)
T8 construct: purchased DiscoveRx KINOMEscan (Ambit Biosciences)

[9] = biological target: T9, DAPK2 (Homo sapiens, UniProt Q9UIK4); assay: KINOMEscan panel screen; format: binding; details: read-out: Percent Control(%)
T9 construct: purchased DiscoveRx KINOMEscan (Ambit Biosciences)

[10] = biological target: T10, DDR1 (Homo sapiens, UniProt Q08345); assay: KINOMEscan panel screen; format: binding; details: read-out: Percent Control(%)
T10 construct: purchased DiscoveRx KINOMEscan (Ambit Biosciences)

[11] = biological target: T11, EPHB3 (Homo sapiens, UniProt P54753); assay: KINOMEscan panel screen; format: binding; details: read-out: Percent Control(%)
T11 construct: purchased DiscoveRx KINOMEscan (Ambit Biosciences)

[12] = biological target: T12, ERK2 (Homo sapiens, UniProt P28482); assay: KINOMEscan panel screen; format: binding; details: read-out: Percent Control(%)
T12 construct: purchased DiscoveRx KINOMEscan (Ambit Biosciences)

[13] = biological target: T13, FLT3(R834Q) (Homo sapiens, UniProt P36888, R834Q); assay: KINOMEscan panel screen; format: binding; details: read-out: Percent Control(%)
T13 construct: purchased DiscoveRx KINOMEscan (Ambit Biosciences)

[14] = biological target: T14, FRK (Homo sapiens, UniProt P42685); assay: KINOMEscan panel screen; format: binding; details: read-out: Percent Control(%)
T14 construct: purchased DiscoveRx KINOMEscan (Ambit Biosciences)

[15] = biological target: T15, GSK3B (Homo sapiens, UniProt P49841); assay: KINOMEscan panel screen; format: binding; details: read-out: Percent Control(%)
T15 construct: purchased DiscoveRx KINOMEscan (Ambit Biosciences)

[16] = biological target: T16, KIT(V559D) (Homo sapiens, UniProt P10721, V559D); assay: KINOMEscan panel screen; format: binding; details: read-out: Percent Control(%)
T16 construct: purchased DiscoveRx KINOMEscan (Ambit Biosciences)

[17] = biological target: T17, KIT(V559D,T670I) (Homo sapiens, UniProt P10721, T670I/V559D); assay: KINOMEscan panel screen; format: binding; details: read-out: Percent Control(%)
T17 construct: purchased DiscoveRx KINOMEscan (Ambit Biosciences)

[18] = biological target: T18, KIT-autoinhibited (Homo sapiens, UniProt P10721); assay: KINOMEscan panel screen; format: binding; details: read-out: Percent Control(%)
T18 construct: purchased DiscoveRx KINOMEscan (Ambit Biosciences)

[19] = biological target: T19, LIMK1 (Homo sapiens, UniProt P53667); assay: KINOMEscan panel screen; format: binding; details: read-out: Percent Control(%)
T19 construct: purchased DiscoveRx KINOMEscan (Ambit Biosciences)

[20] = biological target: T20, MAP3K4 (Homo sapiens, UniProt Q9Y6R4); assay: KINOMEscan panel screen; format: binding; details: read-out: Percent Control(%)
T20 construct: purchased DiscoveRx KINOMEscan (Ambit Biosciences)

[21] = biological target: T21, MLK1 (Homo sapiens, UniProt P80192); assay: KINOMEscan panel screen; format: binding; details: read-out: Percent Control(%)
T21 construct: purchased DiscoveRx KINOMEscan (Ambit Biosciences)

[22] = biological target: T22, MYO3A (Homo sapiens, UniProt Q8NEV4); assay: KINOMEscan panel screen; format: binding; details: read-out: Percent Control(%)
T22 construct: purchased DiscoveRx KINOMEscan (Ambit Biosciences)

[23] = biological target: T23, MYO3B (Homo sapiens, UniProt Q8WXR4); assay: KINOMEscan panel screen; format: binding; details: read-out: Percent Control(%)
T23 construct: purchased DiscoveRx KINOMEscan (Ambit Biosciences)

[24] = biological target: T24, NEK10 (Homo sapiens, UniProt Q6ZWH5); assay: KINOMEscan panel screen; format: binding; details: read-out: Percent Control(%)
T24 construct: purchased DiscoveRx KINOMEscan (Ambit Biosciences)

[25] = biological target: T25, NIK (Homo sapiens, UniProt Q99558); assay: KINOMEscan panel screen; format: binding; details: read-out: Percent Control(%)
T25 construct: purchased DiscoveRx KINOMEscan (Ambit Biosciences)

[26] = biological target: T26, PDGFRA (Homo sapiens, UniProt P16234); assay: KINOMEscan panel screen; format: binding; details: read-out: Percent Control(%)
T26 construct: purchased DiscoveRx KINOMEscan (Ambit Biosciences)

[27] = biological target: T27, PFPK5(P.falciparum) (Plasmodium falciparum, UniProt P61075); assay: KINOMEscan panel screen; format: binding; details: read-out: Percent Control(%)
T27 construct: purchased DiscoveRx KINOMEscan (Ambit Biosciences)

[28] = biological target: T28, PRKCH (Homo sapiens, UniProt P24723); assay: KINOMEscan panel screen; format: binding; details: read-out: Percent Control(%)
T28 construct: purchased DiscoveRx KINOMEscan (Ambit Biosciences)

[29] = biological target: T29, PRKG2 (Homo sapiens, UniProt Q13237); assay: KINOMEscan panel screen; format: binding; details: read-out: Percent Control(%)
T29 construct: purchased DiscoveRx KINOMEscan (Ambit Biosciences)

[30] = biological target: T30, RPS6KA5(Kin.Dom.2-C-terminal) (Homo sapiens, UniProt O75582); assay: KINOMEscan panel screen; format: binding; details: read-out: Percent Control(%)
T30 construct: RPS6KA5(Kin.Dom.2-C-terminal); purchased DiscoveRx KINOMEscan (Ambit Biosciences)

[31] = biological target: T31, SRPK3 (Homo sapiens, UniProt Q9UPE1); assay: KINOMEscan panel screen; format: binding; details: read-out: Percent Control(%)
T31 construct: purchased DiscoveRx KINOMEscan (Ambit Biosciences)

[32] = biological target: T32, TBK1 (Homo sapiens, UniProt Q9UHD2); assay: KINOMEscan panel screen; format: binding; details: read-out: Percent Control(%)
T32 construct: purchased DiscoveRx KINOMEscan (Ambit Biosciences)

[33] = biological target: T33, TRKC (Homo sapiens, UniProt Q16288); assay: KINOMEscan panel screen; format: binding; details: read-out: Percent Control(%)
T33 construct: purchased DiscoveRx KINOMEscan (Ambit Biosciences)

[34] = biological target: T34, FLT3-wt (Homo sapiens, UniProt P36888); assay: KINOMEscan kinase binding assay (Kd)
T34 construct: DNA tag (qPCR read-out); purchased Ambit Biosciences (KINOMEscan service)

[35] = test system: MV4-11 bone marrow transplant; assay: MV4-11 bone marrow engraftment model; format: in vivo, NOD-SCID mice; details: for mean survival time (MST): vehicle 51 days
Procedure: Finally, the influence of SKLB-677 on survival time was examined using a bone marrow (BM) transplant model of MV4-11. In the vehicle control group, the mean survival time (MST) was 51 days, with all animals expired by day 58.
NOD-SCID mice were pretreated with cyclophosphamide by intraperitoneal injection of 150 mg/kg/d for 2 days. Following a 24-hour rest period, the mice were intravenously injected with 8 × 10^6 MV4-11 cells per mouse via the tail vein. From the day 21 after inoculation, SKLB-677 or vehicle was administered orally once a day for 30 days.
Supplementary Figure S9. NOD- SC ID mice were intravenousl y inject ed with 8×10^6 MV4-11 cells per mouse via the tail vein. Oral administration of S K LB -677 at 10 mg/kg/d was initiated on day 21 after the inoculati on. Mouse ( 3mice per group) thigh femurs were collected for immunohistochemical Ki67 anal ysis after 6 d a ys of […]
regression of bone marrow tumor. Scale bar, 100μm.
(1 picture or pasted object on this page, not shown here)

T3 sequence (Q96D53 whole entry): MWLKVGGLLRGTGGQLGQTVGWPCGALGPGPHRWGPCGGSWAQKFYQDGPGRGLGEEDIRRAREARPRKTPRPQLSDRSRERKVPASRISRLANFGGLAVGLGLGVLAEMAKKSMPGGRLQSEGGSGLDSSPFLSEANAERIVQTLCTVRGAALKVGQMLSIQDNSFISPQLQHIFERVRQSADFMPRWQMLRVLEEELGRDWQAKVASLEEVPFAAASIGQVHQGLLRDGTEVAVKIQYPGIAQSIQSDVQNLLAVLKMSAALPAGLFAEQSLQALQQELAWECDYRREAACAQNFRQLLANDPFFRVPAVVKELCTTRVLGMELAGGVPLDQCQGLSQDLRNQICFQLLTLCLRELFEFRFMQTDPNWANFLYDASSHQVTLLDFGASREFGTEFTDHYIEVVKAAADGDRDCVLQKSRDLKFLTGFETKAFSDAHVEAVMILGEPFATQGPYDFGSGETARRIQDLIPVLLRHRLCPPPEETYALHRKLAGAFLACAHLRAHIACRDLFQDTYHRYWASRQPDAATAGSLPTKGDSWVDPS
T15 sequence (P49841 whole entry): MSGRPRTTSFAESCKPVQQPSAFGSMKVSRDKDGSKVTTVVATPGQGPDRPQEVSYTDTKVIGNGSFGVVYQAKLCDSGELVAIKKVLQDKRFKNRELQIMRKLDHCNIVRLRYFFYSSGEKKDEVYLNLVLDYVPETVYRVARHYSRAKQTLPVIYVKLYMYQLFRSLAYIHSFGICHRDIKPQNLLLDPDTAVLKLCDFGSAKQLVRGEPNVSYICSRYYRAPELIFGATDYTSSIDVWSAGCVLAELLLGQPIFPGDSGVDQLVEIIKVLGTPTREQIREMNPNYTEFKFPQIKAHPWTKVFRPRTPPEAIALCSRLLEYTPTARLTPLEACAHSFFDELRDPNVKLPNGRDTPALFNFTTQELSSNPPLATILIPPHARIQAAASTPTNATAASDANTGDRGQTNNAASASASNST
T9 sequence (Q9UIK4 whole entry): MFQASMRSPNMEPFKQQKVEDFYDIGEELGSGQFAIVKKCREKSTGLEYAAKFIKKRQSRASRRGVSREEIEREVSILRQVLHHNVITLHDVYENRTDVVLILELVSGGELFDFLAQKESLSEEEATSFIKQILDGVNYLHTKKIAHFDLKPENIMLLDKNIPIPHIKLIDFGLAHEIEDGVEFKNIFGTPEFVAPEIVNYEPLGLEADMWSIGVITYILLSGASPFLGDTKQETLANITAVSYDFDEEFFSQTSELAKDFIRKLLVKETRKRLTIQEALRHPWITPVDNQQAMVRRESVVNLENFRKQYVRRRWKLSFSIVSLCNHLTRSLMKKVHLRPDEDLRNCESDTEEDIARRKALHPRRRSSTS
T6 sequence (O14578 whole entry): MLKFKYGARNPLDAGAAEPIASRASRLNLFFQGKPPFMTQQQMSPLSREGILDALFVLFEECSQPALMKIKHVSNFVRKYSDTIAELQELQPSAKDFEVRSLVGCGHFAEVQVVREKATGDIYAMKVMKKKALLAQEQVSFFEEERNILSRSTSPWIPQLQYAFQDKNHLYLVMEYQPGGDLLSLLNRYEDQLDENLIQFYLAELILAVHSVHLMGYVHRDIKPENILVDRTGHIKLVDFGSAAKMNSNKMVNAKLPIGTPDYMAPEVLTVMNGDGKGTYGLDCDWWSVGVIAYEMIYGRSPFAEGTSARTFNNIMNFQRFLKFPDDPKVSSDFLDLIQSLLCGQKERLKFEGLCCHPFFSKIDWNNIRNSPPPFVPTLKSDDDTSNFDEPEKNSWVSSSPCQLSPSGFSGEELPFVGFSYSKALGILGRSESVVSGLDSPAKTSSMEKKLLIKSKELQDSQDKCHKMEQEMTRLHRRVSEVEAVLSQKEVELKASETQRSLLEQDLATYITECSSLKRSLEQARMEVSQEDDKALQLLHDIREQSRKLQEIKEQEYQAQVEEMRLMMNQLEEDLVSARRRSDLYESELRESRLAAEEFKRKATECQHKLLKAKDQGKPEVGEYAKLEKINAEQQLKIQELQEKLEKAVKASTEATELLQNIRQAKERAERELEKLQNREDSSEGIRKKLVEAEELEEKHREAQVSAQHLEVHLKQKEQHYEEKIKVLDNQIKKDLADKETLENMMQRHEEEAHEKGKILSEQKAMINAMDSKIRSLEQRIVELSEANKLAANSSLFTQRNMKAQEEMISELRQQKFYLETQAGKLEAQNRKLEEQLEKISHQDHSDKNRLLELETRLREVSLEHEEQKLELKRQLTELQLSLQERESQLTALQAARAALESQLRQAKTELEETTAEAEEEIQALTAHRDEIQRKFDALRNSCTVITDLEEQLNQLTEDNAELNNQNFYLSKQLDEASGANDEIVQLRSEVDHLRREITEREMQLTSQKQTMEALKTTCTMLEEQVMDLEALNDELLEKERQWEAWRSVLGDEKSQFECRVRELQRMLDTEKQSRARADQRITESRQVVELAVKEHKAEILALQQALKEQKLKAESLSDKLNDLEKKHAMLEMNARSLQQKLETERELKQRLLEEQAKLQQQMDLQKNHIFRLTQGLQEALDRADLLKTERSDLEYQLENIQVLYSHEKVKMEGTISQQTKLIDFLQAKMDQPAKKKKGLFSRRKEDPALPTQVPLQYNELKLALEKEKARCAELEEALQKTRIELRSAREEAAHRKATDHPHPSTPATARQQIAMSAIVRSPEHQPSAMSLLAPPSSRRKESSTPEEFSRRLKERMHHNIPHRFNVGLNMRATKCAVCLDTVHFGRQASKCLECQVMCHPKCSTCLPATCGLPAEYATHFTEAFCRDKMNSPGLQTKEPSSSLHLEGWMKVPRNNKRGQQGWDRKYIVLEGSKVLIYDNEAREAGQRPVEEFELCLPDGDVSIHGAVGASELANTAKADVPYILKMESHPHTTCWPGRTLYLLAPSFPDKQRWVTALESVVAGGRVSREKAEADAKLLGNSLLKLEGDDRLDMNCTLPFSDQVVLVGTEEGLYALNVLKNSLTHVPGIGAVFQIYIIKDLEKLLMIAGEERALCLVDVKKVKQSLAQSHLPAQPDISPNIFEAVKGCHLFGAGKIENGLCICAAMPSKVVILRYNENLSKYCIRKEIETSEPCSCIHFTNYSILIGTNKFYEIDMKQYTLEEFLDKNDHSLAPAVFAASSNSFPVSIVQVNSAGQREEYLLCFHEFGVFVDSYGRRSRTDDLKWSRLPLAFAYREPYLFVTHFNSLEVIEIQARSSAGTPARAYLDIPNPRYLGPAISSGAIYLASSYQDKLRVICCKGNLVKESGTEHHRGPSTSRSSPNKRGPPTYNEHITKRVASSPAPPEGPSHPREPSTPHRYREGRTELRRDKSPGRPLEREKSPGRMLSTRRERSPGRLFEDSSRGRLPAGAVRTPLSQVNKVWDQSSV
T12 sequence (P28482 whole entry): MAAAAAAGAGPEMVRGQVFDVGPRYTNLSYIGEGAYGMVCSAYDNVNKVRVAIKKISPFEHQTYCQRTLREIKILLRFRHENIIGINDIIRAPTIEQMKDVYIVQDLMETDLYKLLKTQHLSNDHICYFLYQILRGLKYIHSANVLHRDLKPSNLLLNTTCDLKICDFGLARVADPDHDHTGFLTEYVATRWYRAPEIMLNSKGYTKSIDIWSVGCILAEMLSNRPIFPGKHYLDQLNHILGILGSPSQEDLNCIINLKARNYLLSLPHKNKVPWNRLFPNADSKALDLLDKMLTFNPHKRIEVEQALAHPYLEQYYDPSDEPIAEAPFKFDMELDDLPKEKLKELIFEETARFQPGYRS
T21 sequence (P80192 whole entry): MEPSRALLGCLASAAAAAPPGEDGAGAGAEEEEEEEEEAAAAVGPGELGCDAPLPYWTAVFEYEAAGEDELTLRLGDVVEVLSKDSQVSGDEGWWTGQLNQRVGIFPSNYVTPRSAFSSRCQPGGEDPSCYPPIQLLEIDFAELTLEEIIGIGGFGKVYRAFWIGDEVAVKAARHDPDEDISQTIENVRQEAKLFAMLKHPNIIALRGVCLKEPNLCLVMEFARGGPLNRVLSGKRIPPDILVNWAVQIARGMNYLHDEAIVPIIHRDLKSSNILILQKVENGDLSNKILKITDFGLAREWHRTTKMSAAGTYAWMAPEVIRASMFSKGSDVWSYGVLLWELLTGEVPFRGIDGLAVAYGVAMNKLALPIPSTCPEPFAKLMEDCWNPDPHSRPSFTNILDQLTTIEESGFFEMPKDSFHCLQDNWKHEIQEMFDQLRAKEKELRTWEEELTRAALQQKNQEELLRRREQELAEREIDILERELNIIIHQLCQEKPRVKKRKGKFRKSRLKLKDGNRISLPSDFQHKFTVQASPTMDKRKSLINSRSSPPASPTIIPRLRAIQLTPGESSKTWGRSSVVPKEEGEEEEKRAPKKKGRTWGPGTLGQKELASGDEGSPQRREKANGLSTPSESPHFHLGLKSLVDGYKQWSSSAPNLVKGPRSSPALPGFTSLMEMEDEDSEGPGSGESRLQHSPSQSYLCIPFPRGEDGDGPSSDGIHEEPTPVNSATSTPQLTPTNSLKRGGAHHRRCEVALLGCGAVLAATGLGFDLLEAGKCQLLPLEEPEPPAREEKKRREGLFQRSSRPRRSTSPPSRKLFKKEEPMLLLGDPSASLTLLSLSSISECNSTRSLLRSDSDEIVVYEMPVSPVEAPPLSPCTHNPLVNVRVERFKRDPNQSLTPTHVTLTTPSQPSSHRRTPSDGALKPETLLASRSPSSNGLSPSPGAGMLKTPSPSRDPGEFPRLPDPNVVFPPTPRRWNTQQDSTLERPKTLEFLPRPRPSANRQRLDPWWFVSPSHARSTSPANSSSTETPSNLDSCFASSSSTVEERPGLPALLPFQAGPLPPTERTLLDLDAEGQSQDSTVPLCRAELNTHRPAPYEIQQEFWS

CC(C)(C)c1cc(NC(=O)Nc2ccc(Oc3ncnc4[nH]ncc34)c(F)c2)no1 [SKLB-677, 1-(4-(1H-pyrazolo[3,4-d]pyrimidin-4-yloxy)-3-fluorophenyl)-3-(5-tert-butylisoxazol-3-yl)urea]
remaining binding at 10 µM [1]: 43% | remaining binding at 10 µM [2]: 5.6% | remaining binding at 10 µM [3]: 100% | remaining binding at 10 µM [4]: 21% | remaining binding at 10 µM [5]: 3.1% | remaining binding at 10 µM [6]: 16% | remaining binding at 10 µM [7]: 0.1% | remaining binding at 10 µM [8]: 76% | remaining binding at 10 µM [9]: 83% | remaining binding at 10 µM [10]: 3.6% | remaining binding at 10 µM [11]: 0.8% | remaining binding at 10 µM [12]: 100% | remaining binding at 10 µM [13]: 2.8% | remaining binding at 10 µM [14]: 0% | remaining binding at 10 µM [15]: 96% | remaining binding at 10 µM [16]: 0% | remaining binding at 10 µM [17]: 0.1% | remaining binding at 10 µM [18]: 1.1% | remaining binding at 10 µM [19]: 25% | remaining binding at 10 µM [20]: 69% | remaining binding at 10 µM [21]: 42% | remaining binding at 10 µM [22]: 11% | remaining binding at 10 µM [23]: 17% | remaining binding at 10 µM [24]: 93% | remaining binding at 10 µM [25]: 90% | remaining binding at 10 µM [26]: 0.25% | remaining binding at 10 µM [27]: 100% | remaining binding at 10 µM [28]: 100% | remaining binding at 10 µM [29]: 100% | remaining binding at 10 µM [30]: 100% | remaining binding at 10 µM [31]: 71% | remaining binding at 10 µM [32]: 70% | remaining binding at 10 µM [33]: 0.05% | Kd [34]: 0.74 nM | mean survival time (MST) ([35]; 3 mg/kg/day orally for 30 days): 66 days | number of Ki67-positive cells in femur BM ([35]; 10 mg/kg/d for 6 days): obviously decreased | mean survival time (MST) ([35]; 10 mg/kg/day orally for 30 days): 78.5 days | mean survival time (MST) ([35]; 30 mg/kg/day orally for 30 days): 85.5 days
